The data set can be described thus: Human HepG2 cell viability assay in 384 well format. It is filed as toxicity, cell-based. Also noted: dose 125 nL, time 70.5 hour; cytotoxicity at 70.5 h: concentration not given beside the values. The settings on record: HepG2 cells, read-out: Inhibition.
Turning to `Cc1ccc(O)c(CNC2CCCN(Cc3noc(C4CC4)n3)C2)n1` (stereo unspecified), the cytotoxicity at 70.5 h is -4.57%.

Consider `CC(C)c1nc(C2CCCN(C(=O)Cn3ccccc3=O)C2)no1` (stereo unspecified), for which the cytotoxicity at 70.5 h was -1.03%. The figure for `CC(C)Oc1ncccc1CNC(=O)N1CCC1` is -7.74%; for `N#CC1(C(=O)N2CCCN(Cc3cscn3)CC2)CCCCC1` it is 0.606%; for `CCc1nc2n(n1)CC(NCC(=O)Nc1cc(C(C)(C)C)no1)CC2` (stereo unspecified) it is -0.0913%. Next, `CCc1ccc(C(C)NC(=O)N2CCC(n3cncn3)CC2)cc1` (stereo unspecified): -8.05%; `Cn1cc(C2CCCN2C(=O)CCCc2cccs2)cn1` (stereo unspecified): -12.4%. The figure for `CC(C)c1noc(CCCC(=O)N2CCN(S(C)(=O)=O)CC2)n1` is -5.72%; for `CC(C)c1noc(CCC(=O)N2CCN(Cc3ccncc3)CC2)n1` it is -7.35%; for `Cc1cc(CN(C)C(=O)c2cccc(N3CCCS3(=O)=O)c2)no1` it is -12.6%. Turning to `CC(Cn1ccnc1)NC(=O)C1(c2ccc(F)cc2)CCCC1` (stereo unspecified), the cytotoxicity at 70.5 h was -7.69%. Regarding `Cc1cc(CN2CCN(C(=O)CCCc3nc(C(C)C)no3)CC2)on1`, the cytotoxicity at 70.5 h is -8.77%.

On to `Cn1cc(NS(=O)(=O)c2ccc(F)c(F)c2)ccc1=O`, for which the cytotoxicity at 70.5 h is -7.99%. The figure for `Cn1ncc2c(=O)[nH]c(CN3CCCC3c3ccccc3Cl)nc21` (stereo unspecified) is -8.75%; for `Cn1ncc2c(=O)[nH]c(CN3CCc4ccccc4C3)nc21` it is -15.9%. With `COC(=O)c1ccc(N2CCN(C(=O)c3ccc(O)nc3)C(C)C2)cc1` (stereo unspecified), the cytotoxicity at 70.5 h is -7.53%. Next, `COC(=O)c1ccc(N2CCN(C(=O)c3cnccn3)C(C)C2)cc1` (stereo unspecified): -6.45%; `N#CC1(C(=O)N2CCN(Cc3cscn3)CC2)CCCCC1`: -4.74%; `CCc1nc(CN2CCN(C(=O)C3(C#N)CCCCC3)CC2)cs1`: -0.0355%. Consider `Cc1nc(CN2CCCC(NCc3cccc(C(N)=O)c3)C2)no1` (stereo unspecified), for which the cytotoxicity at 70.5 h was -3.45%. The figure for `Cc1ccc(C)c(C(C)NC(=O)N2CCC(n3cncn3)CC2)c1` (stereo unspecified) is -3.74%. Next, `Cn1cc(C2CCCN2C(=O)CCCc2ccccn2)cn1` (stereo unspecified): -7.85%; `Cc1cc(NC(=O)CNC2CCc3nc(C(C)C)nn3C2)no1` (stereo unspecified): -6.53%.

Regarding `CCc1nc(CN2CCCC(NCc3cccc(C(N)=O)c3)C2)no1` (stereo unspecified), the cytotoxicity at 70.5 h was -6.52%. Next, `Cc1cc(CN(C)C(=O)c2ccc(Cl)cc2N2CCCC2=O)no1`: -12.5%; `CCNc1cc2c(nn1)CCN(C(=O)C1CCc3ccccc31)C2` (stereo unspecified): -0.738%; `COc1ccccc1C(C)NC(=O)N1CCC(n2cncn2)CC1` (stereo unspecified): -7.85%. For the compound `CCn1cnnc1C1CCN(C(=O)c2cc3c(s2)CCOC3)CC1`, the cytotoxicity at 70.5 h was -9.84%. `Cn1cnnc1C1CCN(C(=O)c2cc3c(s2)CCC3)CC1`: the cytotoxicity at 70.5 h was -9.61%. Next, `Cc1oc(-c2ccco2)nc1CN1CCCC(Cn2cncn2)C1` (stereo unspecified): 39.6%. Next, `CCOCC(O)CN1CCN(C(=O)c2ccc3c(c2)COC3)CC1` (stereo unspecified): -8.02%; `Cc1cccc(C)c1OCCNC(=O)C(C)n1cncn1` (stereo unspecified): -11.4%. Regarding `O=C(Nc1cccnc1)C1=NN(c2ccccc2)C(=O)CN1`, the cytotoxicity at 70.5 h is 6.02%. For the compound `Cc1noc(CN2CCN(C(=O)N(C)C)CC2)n1`, the cytotoxicity at 70.5 h is -11%.

As to `CC(C(=O)NCCOc1ccc2c(c1)CCC2)n1cncn1` (stereo unspecified), the cytotoxicity at 70.5 h turned out to be 7.17%. Next, `CC1CN(Cc2noc(C3CC3)n2)CCN1Cc1noc(C2CC2)n1` (stereo unspecified): -13.7%; `Cc1ccc(C(=O)N2CCN(CC(C)O)CC2)cc1S(C)(=O)=O` (stereo unspecified): -6.11%; `CCc1nnc2n1CCN(C(=O)Cc1nc(-c3ccco3)oc1C)C2`: 10.8%. The figure for `COC(=O)CN1CCCN(C(=O)CCOc2cccc(C)c2C)CC1` is -5.13%. Next, `COc1c(C2CCCN2Cc2cccc(C(N)=O)c2)c(C)nn1C` (stereo unspecified): -2.05%; `Cc1nn(C)c(Cl)c1C1CCCN1Cc1ccc(C(N)=O)cc1` (stereo unspecified): -7.15%. For the compound `CCc1nnc2n1CCN(C(=O)c1ccc(-c3ccco3)[nH]c1=O)C2`, the cytotoxicity at 70.5 h was -6.59%. With `Cc1cccc(OCCC(=O)N2CCN(CC(=O)NC3CC3)CC2)c1C`, the cytotoxicity at 70.5 h is -11.9%. The figure for `CCc1noc(CN2CCCN(C(C)=O)CC2)n1` is -6.42%; for `CCc1noc(CN2CCN(C(=O)C3CC3)CC2)n1` it is -9.23%. Next, `CC(C)(O)CN1CCN(C(=O)c2ccc3c(c2)COC3)CC1`: -5.78%; `CNS(=O)(=O)c1ccc(C(=O)NCCc2ccccn2)cc1`: -10.7%.

`CCCNC(=O)N1CCN(Cc2cc(C)no2)CC1`: the cytotoxicity at 70.5 h is -8.29%.

Consider `O=C(CN1C=Nc2ccccc2S1(=O)=O)NCCc1cccs1`, for which the cytotoxicity at 70.5 h turned out to be 1.55%.

Take `Cc1noc(Cl)c1CCC(=O)N1CCN(c2ncccn2)CC1`: the cytotoxicity at 70.5 h is -7.01%. Next, `COc1ccccc1CNC(=O)N1CCCC(c2nncn2C)C1` (stereo unspecified): -2.85%; `CCOc1ccccc1C(=O)NS(=O)(=O)c1ccc2c(c1)OCCCO2`: -4.55%; `Cc1nnc2n1CCN(CCC(=O)Nc1sccc1C#N)C2`: -12.9%. On to `CCc1nnc2n1CCN(CC(=O)Nc1sccc1C#N)C2`, for which the cytotoxicity at 70.5 h was -9.93%. Take `COc1ccc(CNC(=O)NCc2c(C)cc(C)[nH]c2=O)cc1`: the cytotoxicity at 70.5 h is -11.9%.

Regarding `Cc1cnn(C2CN(CC(=O)Nc3cccnc3)C2)c1`, the cytotoxicity at 70.5 h is -9.68%.

In the case of `COc1ccc(CCC(=O)NC2CCC(O)CC2)cc1OC` (stereo unspecified), the cytotoxicity at 70.5 h was -4.91%. As for `Cc1cnn(C2CN(CC(=O)NCCc3ccccc3)C2)c1`, the cytotoxicity at 70.5 h is -16.2%. Regarding `Cn1cc(C2CCCN2C(=O)c2ccc(Br)o2)cn1` (stereo unspecified), the cytotoxicity at 70.5 h is -10.2%. The figure for `CC(C)c1cc(NC(=O)CN2CCCC2Cn2cccn2)on1` (stereo unspecified) is -1.57%; for `Cn1cnc2c1CCN(Cc1nc(Cc3ccccc3)no1)C2` it is -3.21%; for `CC(C(=O)NCCN1CCCCCC1)n1cncn1` (stereo unspecified) it is -0.492%. The figure for `O=C(CN1CCCC(Cn2cncn2)C1)NCc1ccco1` (stereo unspecified) is -15.8%.

For the compound `COCCCNC(=O)N1CCCC(c2nncn2C)C1` (stereo unspecified), the cytotoxicity at 70.5 h is -12.4%.

Take `Cc1nn(C)c(C)c1C1CCCN1Cc1noc(C2CC2)n1` (stereo unspecified): the cytotoxicity at 70.5 h amounted to 7.14%.

For the compound `Cc1nccn1-c1cc(CNC(=O)CCC2CCCO2)ccn1` (stereo unspecified), the cytotoxicity at 70.5 h came to 43.5%.

Take `CCc1nc(C(=O)N2CCN(C)CC2C)nn1-c1ccccc1Cl` (stereo unspecified): the cytotoxicity at 70.5 h was 23.5%.

For `CCc1noc(C)c1C(=O)N1CCCC1Cn1cc(C)cn1` (stereo unspecified), the cytotoxicity at 70.5 h stood at 25.2%. On to `CC(C)c1nn(C)c(N2CCOCC2)c1CNC(C)c1cccs1` (stereo unspecified), for which the cytotoxicity at 70.5 h is -1.47%. For the compound `Cc1nccc(-c2cccc(NCC(=O)N3CCc4sccc4C3)c2)n1`, the cytotoxicity at 70.5 h stood at 2.9%. Next, `Cc1nccc(-c2cccc(NCC(=O)N3CCNC3=O)c2)n1`: -0.295%. Consider `O=C(CCC1CCCO1)NCc1ccnc(-n2cccn2)c1` (stereo unspecified), for which the cytotoxicity at 70.5 h is 23.5%.

For `Cc1ncsc1C(=O)NC1CCN(CC(=O)N(C)c2ccccc2)CC1`, the cytotoxicity at 70.5 h was -1.98%.

For `Cc1ncsc1C(=O)NC1CCN(CC(=O)NCc2ccccc2)CC1`, the cytotoxicity at 70.5 h turned out to be 2.21%. Next, `Cc1noc(C)c1CN(C)C(=O)c1ccc(NC2CC2)nc1`: 0.339%; `CC(NC(=O)CSCC#N)c1cccc(NC(=O)c2ccccc2)c1` (stereo unspecified): 10.4%. The figure for `Cc1cc(C)c(CNC(=O)NCC(O)COc2ccccc2)c(=O)[nH]1` (stereo unspecified) is 21.6%. Next, `CC(C)c1nn(C)c(N(C)C)c1CNCc1ccc2c(c1)OCO2`: 2.49%; `CC(C)c1nn(C)c(N2CCOCC2)c1CN[C@H](C)CO`: -1.16%. Regarding `CC(CCc1ccco1)NC(=O)Nc1cc(C(F)(F)F)c[nH]c1=O` (stereo unspecified), the cytotoxicity at 70.5 h is 0.203%. On to `CCN1CCN(C(=O)c2nc(C)n(-c3ccccc3Cl)n2)CC1`, for which the cytotoxicity at 70.5 h was 7.74%. Consider `CCc1noc(C)c1C(=O)N1CCCC1Cn1nc(C)cc1C` (stereo unspecified), for which the cytotoxicity at 70.5 h is -3.58%. Next, `CC(=O)Nc1nc(C(=O)N2CCCC(n3ccnc3)C2)cs1` (stereo unspecified): -0.488%; `COCCc1noc(CN2CCc3nn(C(C)C)c(=O)cc3C2)n1`: 32.4%. As for `CN(Cc1ccc(Cl)s1)C(=O)NCc1nnc2n1CCC2`, the cytotoxicity at 70.5 h amounted to 2.59%. The figure for `CC(=O)NC1CCCN(C(=O)NCc2ccc(-c3ccn[nH]3)cc2)C1` (stereo unspecified) is 3.22%; for `CC(C)(C)c1ncc(C(=O)NCCNC(=O)c2ccccc2)s1` it is 1.17%; for `Cc1[nH]nc2ncc(C(=O)N3CCN(CC(C)C)CC3)cc12` it is 11.9%. On to `CC(=O)N1CCCN(C(=O)NCc2cc[nH]n2)CC1`, for which the cytotoxicity at 70.5 h is 44.8%. The figure for `O=C(CCc1cccs1)N1CCC(Nc2cccnn2)CC1` is 42.7%. The figure for `O=C(CCCOc1ccc(F)cc1F)N1CCCC1Cn1cccn1` (stereo unspecified) is 1.98%. Next, `Cc1ccc(NS(=O)(=O)c2cc3c(c(C(=O)O)c2)OCCO3)c(F)c1`: 44.6%; `Cc1ccccc1NS(=O)(=O)c1cc2c(c(C(=O)O)c1)OCCO2`: 6.41%. For `COC(=O)c1ccc(N2CCN(CCN3CCOCC3)C(C)C2)cc1` (stereo unspecified), the cytotoxicity at 70.5 h was -6.62%. As to `COC1CCN(C(=O)CCc2c(C)nc3ccnn3c2C)CC1`, the cytotoxicity at 70.5 h was -0.665%.

With `CC(Cn1cccn1)NCc1nc(-c2cccc(Cl)c2)no1` (stereo unspecified), the cytotoxicity at 70.5 h was 7.24%. With `CC(Cn1cccn1)NCc1nc(-c2cccs2)no1` (stereo unspecified), the cytotoxicity at 70.5 h was found to be 3.96%.

In the case of `Cc1nn(C)c(C)c1CC(=O)N1CCCC(n2cccn2)C1` (stereo unspecified), the cytotoxicity at 70.5 h was -2.45%. Next, `CC(C)c1noc(C(C)N2CCN(Cc3ccccc3C#N)CC2)n1` (stereo unspecified): 2.84%. Turning to `CNC(=O)c1ccc(C(=O)N2CCCC2c2cnn(C)c2)cn1` (stereo unspecified), the cytotoxicity at 70.5 h is 1.99%. Next, `Cc1nc(CN2CCc3nn(C(C)C)c(=O)cc3C2)oc1C`: 4.51%.
